In publication PMC5402990 (PLoS Neglected Tropical Diseases, 2017):

Target: PIKfyve (Homo sapiens, UniProt Q9Y2I7)
Type: cell-based

Sequence of PIKfyve (Q9Y2I7 whole entry, species assumed): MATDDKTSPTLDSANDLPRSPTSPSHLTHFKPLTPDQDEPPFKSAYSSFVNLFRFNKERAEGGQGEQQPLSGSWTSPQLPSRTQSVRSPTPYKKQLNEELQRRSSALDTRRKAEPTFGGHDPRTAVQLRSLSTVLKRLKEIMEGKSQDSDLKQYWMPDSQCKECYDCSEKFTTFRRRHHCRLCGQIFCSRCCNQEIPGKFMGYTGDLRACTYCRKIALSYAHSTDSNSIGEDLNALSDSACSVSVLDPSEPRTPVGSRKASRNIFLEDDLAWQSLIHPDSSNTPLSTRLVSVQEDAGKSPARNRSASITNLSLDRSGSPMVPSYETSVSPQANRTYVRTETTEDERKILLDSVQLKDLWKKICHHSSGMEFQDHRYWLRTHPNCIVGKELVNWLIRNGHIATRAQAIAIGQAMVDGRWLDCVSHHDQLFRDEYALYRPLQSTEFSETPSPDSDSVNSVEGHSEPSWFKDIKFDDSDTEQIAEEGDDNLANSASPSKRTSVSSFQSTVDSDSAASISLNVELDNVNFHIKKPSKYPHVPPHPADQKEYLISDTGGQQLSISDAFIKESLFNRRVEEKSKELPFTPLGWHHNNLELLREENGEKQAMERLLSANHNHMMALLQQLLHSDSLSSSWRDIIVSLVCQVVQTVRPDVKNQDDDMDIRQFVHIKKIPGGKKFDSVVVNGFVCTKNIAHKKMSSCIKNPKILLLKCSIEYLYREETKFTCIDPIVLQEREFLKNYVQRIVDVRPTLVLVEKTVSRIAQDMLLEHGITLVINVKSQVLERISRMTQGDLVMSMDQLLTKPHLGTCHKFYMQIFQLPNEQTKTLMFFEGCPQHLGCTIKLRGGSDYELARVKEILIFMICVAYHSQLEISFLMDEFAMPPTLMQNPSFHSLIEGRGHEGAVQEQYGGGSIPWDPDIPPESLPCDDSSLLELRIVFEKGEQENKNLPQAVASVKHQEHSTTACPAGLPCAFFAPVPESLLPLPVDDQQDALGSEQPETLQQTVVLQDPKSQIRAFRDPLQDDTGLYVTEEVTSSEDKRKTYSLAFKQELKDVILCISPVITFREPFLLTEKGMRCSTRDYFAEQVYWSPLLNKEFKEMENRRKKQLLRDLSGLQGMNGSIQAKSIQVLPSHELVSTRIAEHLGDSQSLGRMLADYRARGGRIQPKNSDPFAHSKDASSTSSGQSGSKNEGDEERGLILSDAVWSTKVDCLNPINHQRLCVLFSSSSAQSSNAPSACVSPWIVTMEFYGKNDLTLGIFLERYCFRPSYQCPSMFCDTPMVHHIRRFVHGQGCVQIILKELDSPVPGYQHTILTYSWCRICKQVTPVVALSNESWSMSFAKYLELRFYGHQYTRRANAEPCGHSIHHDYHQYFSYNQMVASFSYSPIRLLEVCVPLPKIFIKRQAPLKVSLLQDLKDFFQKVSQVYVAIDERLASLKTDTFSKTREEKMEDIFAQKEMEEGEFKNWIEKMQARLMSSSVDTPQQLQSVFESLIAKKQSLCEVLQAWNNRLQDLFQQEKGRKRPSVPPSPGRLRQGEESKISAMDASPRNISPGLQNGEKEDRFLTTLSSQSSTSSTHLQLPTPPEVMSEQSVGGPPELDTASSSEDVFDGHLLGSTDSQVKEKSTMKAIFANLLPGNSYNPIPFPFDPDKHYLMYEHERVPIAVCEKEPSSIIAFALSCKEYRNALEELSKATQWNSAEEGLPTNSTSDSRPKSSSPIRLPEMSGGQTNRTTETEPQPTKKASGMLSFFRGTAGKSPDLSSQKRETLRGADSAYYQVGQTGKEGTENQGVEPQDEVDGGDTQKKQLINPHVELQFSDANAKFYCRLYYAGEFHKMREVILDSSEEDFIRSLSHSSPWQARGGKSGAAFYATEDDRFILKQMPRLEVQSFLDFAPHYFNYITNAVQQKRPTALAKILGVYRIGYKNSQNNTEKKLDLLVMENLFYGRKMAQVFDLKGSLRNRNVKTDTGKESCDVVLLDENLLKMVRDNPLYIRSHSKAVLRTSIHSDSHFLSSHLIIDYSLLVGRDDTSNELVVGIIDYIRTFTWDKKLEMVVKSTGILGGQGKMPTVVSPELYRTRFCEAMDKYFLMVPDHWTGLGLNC

Cc1cccc(/C=N/Nc2cc(N3CCOCC3)nc(OCCc3ccccn3)n2)c1 [Apilimod, apilimod]
dose needed to inhibit EBOV GP-mediated infection in GFP-PIKfyve vs. GFP expressing cells: higher doses of apilimod were needed to achieve similar levels of inhibition
